According to a melting point compilation (Tetko et al.; mined from patent text by program, amines drawn as free bases though some values may be those of a salt):

melting point [°C]	Structure (SMILES)
228 to 230	Cn1c2ccc(C=O)cc2c2nc3ccccc3nc21
244 to 245	Cn1cc(CNC(=O)c2cc(N3CCN(Cc4ccc(F)cc4)C3=O)n[nH]2)cn1
108	COc1ccc([C@@H]2Sc3cc(Cl)ccc3N(CCN(C)C(=O)OCc3ccccc3)C(=O)[C@@H]2O)cc1
185	CCOC(=O)C1=C(C)Nc2nc(N3CCOCC3)nc(N3CCOCC3)c2C1c1cccnc1Cl (stereo unspecified)
111 to 112	CC(C)c1ccc2nc3ccc(C(=O)OCCCc4cccnc4)cc3c(=O)n2c1
168 to 170	Cn1cc(C(=O)NCc2ccc(Cl)cc2)c(=O)c2cc(CO)ccc21
86 to 88	C#CCOc1cc(-c2ncnc(C(Cl)Cl)c2Cl)c(F)cc1Cl
163 to 164	O=C1c2c(Cl)ccc(Cl)c2C(=O)N1CCN1CCC(c2noc3cc(F)ccc23)CC1
122	CCCC(C)(O)C(=O)Nc1ccnc(C(=O)OC)c1 (stereo unspecified)
162 to 163	O=S(=O)(c1cc(Cl)cc(Cl)c1)n1ccc2c(N3CCN(Cc4ccccc4)CC3)cccc21
104 to 106	Cc1oncc1C(=O)c1ccccc1[N+](=O)[O-]
148	CCOC(=O)Nc1ccn2cc(C)nc2c1I
201 to 204	COc1ccc(CNC(=S)N2CCN(c3ncnc4cc(OC)c(OC)cc34)CC2)cc1
220 to 222	O=C(Nc1ccccc1)c1ccc(CSc2ccc(O)cc2)cc1
217	CC1SC(=O)NN=C1c1ccc2c(c1)C(=NNC1CCCCC1)C(=O)N2 (stereo unspecified)
159 to 161	CC(C)c1nc(-c2ccccc2)n(-c2ccc(F)cc2)c1C=O
138 to 140	CCOC(=O)c1cc(-c2ccccc2)nc2c([N+](=O)[O-])cccc12
216 to 220	CCOC(=O)c1cnc(N(C)Cc2cc3nc(-c4cccc(OCCO)c4)nc(N4CCOCC4)c3s2)nc1
139 to 144	CON=C(C(=O)O)c1nc(N)c(Cl)cc1Cl
191 to 192	CN1CCN(c2cccc3c2C[C@H](NC(=O)c2ccc(Cc4ccccc4)cc2)CC3)CC1
145 to 146	C=CCNC(=O)COc1ccc(C2=NNC(=O)CC2)cc1Cl
291 to 293	CC(C)(C)c1cc(C(=O)Nc2nc(C(=O)O)cs2)cc(C(C)(C)C)c1O
122 to 126	CCCCc1nc2c(N)nc3ccccc3c2n1CCCCSc1ccc(F)cc1F

melting point [°C]	Structure (SMILES)
162	CC(=O)Nc1nc2c(s1)-c1nc(-c3cc(C#CC4CCNCC4)ccc3Cl)ncc1CC2
244 to 245	Cc1c(-c2ccccc2)[nH]c(=O)n1C1CCN(Cc2cccc3c2OCO3)CC1
177 to 179	CCN(CC)c1cccc2nc(C(O)c3ccc(Cl)cc3Cl)n(CCO)c12 (stereo unspecified)
187 to 189	CC1CC(=O)NN=C1c1ccc2c(c1)CCN2 (stereo unspecified)
192 to 194	O=c1nc(-c2cccc(SCCCc3ccccc3)n2)sc2ccccc12
118 to 119	Cc1cccc(C)c1CNc1cc(C2=NCCN2C)cc2c1nc(C)n2C
137 to 138	ClCc1cccc(/C=C/c2cc(-c3ccsc3)cs2)c1
139 to 140	O=C([C@@H]1CCCN1C(=O)OCc1ccccc1)N1CCOCC1
90	CNc1cc(SC2CCN(C)CC2)ccc1[N+](=O)[O-]
74	c1ccc(COc2cccc(OCc3ccccc3)n2)cc1
270 to 272	CN(Cc1ccc(NC(=O)C2=Cc3cc(-c4ccc(C(F)(F)F)cc4)ccc3S(=O)(=O)CC2)cc1)C1CCOCC1
172 to 174	Nc1cc(=O)n(CCC2=CCCCC2)c(=O)n1CCC1=CCCCC1
106 to 108	C[C@@H](O)c1nccc(N2CCN(c3cnc4ccccc4n3)CC2)n1
152 to 154	CC(C)N1C(=O)c2cnc(-c3ccccc3)nc2N(C(=O)CN2CCCCC2)c2ccccc21
> 300	CC(C)[Si](C#Cc1ccc2c(c1)c1cccc3c1c2c1cccc2c4cc(C#C[Si](C(C)C)(C(C)C)C(C)C)ccc4c3c21)(C(C)C)C(C)C
162 to 163	CCC1(O)CC(OC2CC(N(C)C)C(OC3CC(O)C(O)C(C)O3)C(C)O2)c2c(cc3c(c2O)C(=O)c2c(O)ccc(O)c2C3=O)C1C(=O)OC (stereo unspecified)
161 to 164	O=C(c1ccccc1)c1c[nH]nc1-c1cccc(Cl)c1
110 to 114	COc1cc(OC)nc(NC(=O)NS(=O)(=O)c2sc(Cl)c3c2C(=O)OCC3)n1
167 to 169	CC(C)(C)OC(=O)Nc1ccc(C#Cc2ccc(OC(F)(F)F)cc2)cc1N
115 to 117	CCOC(=O)COc1cc2c(C)csc2c(Cl)c1Cl
154 to 156	Cc1cc(-c2ccc(S(C)(=O)=O)cc2)n(-c2ccc(-c3ccoc3)cc2)c1
108 to 109	Cc1ccc(-c2nc(NC(=O)OCC[Si](C)(C)C)cs2)cc1
149 to 150	COc1ccc2c(c1)[C@H]1Cc3c(cc(C)c(OC)c3C)[C@H]1N2 (relative stereo)

melting point [°C]	Structure (SMILES)
113 to 114	Cc1cc(S(=O)(=O)C[N+](=O)[O-])c(C)cc1Cl
137 to 139	CCOC(=O)C1=C(COCCNS(=O)(=O)N2CCN(C)CC2)NC(C)=C(C(=O)OC)C1c1ccccc1Cl (stereo unspecified)
243 to 245	CC(N)(C=CP(=O)(O)O)CCCc1ccc(Sc2cccc(OCc3ccccc3)c2)cc1Cl (stereo unspecified)
273 to 275	Cc1nc2ccc(F)cc2c(=O)n1C1CCC(=O)NC1=O (stereo unspecified)
205 to 206	Cn1cc(C2CCN(CCCCNC(=O)c3ccc(-c4ccc(C(F)(F)F)cc4)cc3)CC2)c2ccccc21
159 to 160	CCOC(=O)N1CCN(C2c3ccccc3C=Cc3ccccc32)CC1
104 to 106	Cc1ccc(C(F)(F)C(F)(F)c2ccc(Br)cc2)cc1
74 to 77	Cc1cccc(NC(=O)C2=C(O)c3ccccc3N(c3ccccc3)C2)n1
53 to 55	CC(C)(CCCCC(=O)CCCCC1(C(=O)O)CCC1)C(=O)O
62 to 63	CCCCCCCCCCOC(=O)c1nc(-c2ccc(Cl)cc2)c(F)c(N)c1Cl
94 to 103	COc1cc(N)c(C(=O)N(C)C)cc1OC
151 to 153	CN(C)c1ccc(-c2ccnc3c(C(=O)c4cccs4)cnn23)cc1NC(=O)c1ccncc1
198 to 200	O=C(Nc1cccc(-c2ccnc3c(C(=O)c4cccs4)cnn23)c1)c1ccccn1
138 to 139	N#Cc1sc(C#N)c(Br)c1Br
110 to 112	CS(=O)(=O)NC(=O)CCCCOc1cccc2occc12
101	N#Cc1ccccc1C1CNC([N+](=O)[O-])CCN1 (stereo unspecified)
130	COc1cc(C(F)(F)F)cc(Cl)c1Oc1ccc2ccc(O)cc2c1
236 to 238	NC(=O)Cn1cc2c(n1)CN=C(c1ccccc1)c1cc(Cl)ccc1-2
79 to 80	Cc1c(C(C)O)ssc1=S (stereo unspecified)
162	Fc1ccc(-c2ncn(CC3CC3)c2-c2ccncc2)cc1
109 to 110	CCOc1cc(C(O)c2ccccn2)ccc1OCc1ccccc1 (stereo unspecified)
171 to 173	CC1=Nc2c(-c3ccncc3)c(-c3ccc(F)cc3)nn2C(C)(C)C1
105 to 107	Clc1ccc(Cn2ccc3cc(OCc4ccncc4)ccc32)cc1

melting point [°C]	Structure (SMILES)
132 to 133	CON(c1ccc([N+](=O)[O-])cc1Cl)S(=O)(=O)c1cc(Cl)ccc1Cl
178 to 181	CC(C)OC(=O)N1CCC(c2nc3cc(-c4ccc(C(N)=O)c(Cl)c4)ccc3o2)CC1
169 to 171	CCOC(=O)c1cc2n(c1)CNc1ccc(Br)cc1-2
169 to 172	CCc1ccccc1Cn1cc(-c2cn(C3CC(O)C(CO)O3)c(=O)[nH]c2=O)nn1 (stereo unspecified)
188 to 191	CN(Cc1ccc(C(=O)O)cc1)c1ccc(Cl)cc1
94 to 96	CC(=O)c1ccc(OCCCN2CCC(c3noc4cc(F)ccc34)CC2)c(N(C)C)c1
149 to 150	CCc1noc(-c2cn(-c3c(OCc4ccccc4)cccc3OCc3ccccc3)cn2)n1
115 to 116	COc1ccc(CN2C(=O)C(N)C(=O)N(CCC(C)C)c3ccccc32)cc1 (stereo unspecified)
225	CC(=O)c1ccc2c(c1)C1(c3ccccc3-c3ccccc31)c1ccccc1-2
227 to 228	Nc1c([N+](=O)[O-])cnc2sccc12
> 220	FC1(F)N=c2cc3c(cc2=N1)OC(Cl)O3
74 to 76	NC(=NO)c1ccccc1C(F)(F)F
104 to 106	Cc1ccc(-c2ccccc2C#N)cc1Br
230	CCOC(=O)N(N=c1[nH]c(SC)nc2ccc(C)cc12)c1ccccc1
178 to 179	Cc1nnc(-c2ccc3occ(-c4cc(C(F)(F)F)ccc4F)c3c2)o1
150	NCCNS(=O)(=O)c1cc(NC(=O)c2cnn3c(C(F)F)cc(-c4ccc(C(F)(F)F)cc4)nc23)c(Cl)s1
306 to 309	N#Cc1cc2ccc(Cl)cc2[nH]c1=O
65	C[C@@H]1C[C@H](OC(=O)C(C)(C)Oc2ccc(C(=O)c3ccc(Cl)cc3)cc2)CC(C)(C)C1 (relative stereo)
120 to 121	CON=C(C)c1ccc(-c2ccc(C(=O)n3ccc4cc(OC)c(OCCN(C)C)cc43)cc2)c(C)c1
204 to 206	Nc1cc(C(c2cc(F)ccc2F)S(=O)(=O)c2ccc(Cl)cc2)c(Br)cn1 (stereo unspecified)
168 to 169	CC1(C)CN(Cc2cc(F)ccc2F)c2cc(I)cnc2N1
192 to 194	Cc1nc2ncnn2c2c1CCN2c1c(Cl)cccc1Cl

Structure (SMILES)	melting point [°C]
O=C(c1cc(C2=CC3CCC(C2)N3)ccn1)N(O)Cc1ccccc1 (stereo unspecified)	95 to 100
C=CCNC(=O)O[C@H]1C[C@@H](C(=O)OC)[C@]2(C)CC[C@H]3C(=O)O[C@H](c4ccoc4)C[C@]3(C)[C@H]2C1=O	196 to 199
NOCc1nnc2n1-c1ccc(Cl)cc1C(c1ccccc1)=NC2	183 to 186
CS(=O)(=O)N(c1ccc(C#CCCN2CC=C(c3ccccc3)CC2)nc1)S(C)(=O)=O	168 to 170
CC(C)N1C(=O)C(C)(C)N=C(c2ccccc2Cl)c2cc([N+](=O)[O-])ccc21	169 to 170
